This is an account of results in patent US8535731B2, “Use of extracts of the Cassia alata plant” (BASF Beauty Care Solutions France S.A.S., priority 2000, dated 2013).

The subject of the experiment is human keratinocytes. The experiment in a line: Inhibition of apoptosis induced by growth factor deficiency, cell count and BrdU ELISA of cytoplasmic DNA fragments. The format is cell-based. Conditions: 30 ng/ml, percent of control. As for the experimental part:
The ability of the plant extracts of Cassia alata to prevent apoptosis induced by a deficiency of growth factors in human skin cells was investigated. The test was conducted in vitro on human fibroblasts and human keratinocytes. The human cells were cultivated in a nutrient medium (DMEM=Dulbecco […] from Life Technologie S.a.r.l.) containing 10% of foetal calf serum (from Dutcher). Bromodeoxyuridine (BrdU) was added to this nutrient medium. It was incorporated in the DNA and was subsequently used to detect the DNA fragments in the cytoplasm. After two days' incubation, the nutrient medium was replaced by nutrient medium (DMEM) with no foetal calf serum. The active substance to be tested was added. […] For comparison, a cell sample was incubated without any active substance to be tested (quantities and concentrations shown in Tables 5 and 6).
After incubation for one or two days at 37° C., the cells were recovered by trypsination using the Dunnebacke and Zitcer method described in Cell and Tissue Culture, Ed.: J. Paul, Churchill Livingstone, 1975, p. […] After the trypsin treatment, the cells were centrifuged and counted. The BrdU content in DNA fragments from the cytoplasm was then determined by the ELISA Test (ELISA Kit from Roche). […]
For orientation: Incorporation of labelled thymidine or its analogues reports DNA synthesis.

On to “EGF: known growth factor Epidermal Growth Factor, polypeptide of 53 amino acids”, for which the Cell counting was found to be 121% and the “Content of DNA fragments in the cytoplasm” value was 32%.
